Values after ≈ are worked out from the molar mass of the structure shown.

Holding throughout (assay type): cell-based
The test system of test [1] is Staphylococcus aureus ATCC29213. Kind of test: MIC, microbroth dilution. The following applies: Staphylococcus aureus ATCC29213, rifS; read-out: Antimicrobial activity (MIC). (In general: Broth dilution looks for growth in wells or tubes with falling amounts of substance.)
Test [2] deals with Staphylococcus aureus ATCC29213 rpoB^D417Y. Kind of test: microbe, parasite or virus in culture. The note with it: Staphylococcus aureus ATCC29213 rpoB^D417Y, rifR; read-out: Antimicrobial activity (MIC). The protocol:
(§1) Representative compounds were assayed for antimicrobial activity as follows: Minimum Inhibitory Concentrations (“MICs”) were determined by the microbroth dilution method as per NCCLS guidelines (National Committee for Clinical Laboratory Standards. 2000. Methods for dilution antimicrobial susceptibility tests for bacteria that grow aerobically, 5th ed. M7-A5. National Committee for Clinical Laboratory Standards, Wayne, Pa.), except that all growth incubations were conducted at 37° C. Bacterial cultures were tested in the following bacteriological media: S. aureus, S. epidermidis, and E. coli in Cation-Adjusted Mueller-Hinton Broth, S. pneumoniae in THY Broth supplemented with 1 mg/mL catalase under 5% CO2 atmosphere, S. pyogenes in THY Broth, E. faecalis in BHI Broth, H. influenzae in BHI Broth supplemented with 0.75 μL of 1 mg/mL NAD and 150 μL of 1 mg/ml hematin per 5 mL, and M. smegmatis in Middlebrook Broth plus ADC Enrichment.
(§2) S. aureus ATCC 29213 RpoB^H418Y is a rifampin-resistant strain with a mutation in the RpoB gene of RNA polymerase. […] S. aureus EN1252a gyrA^S84L grlA^S80F is a quinolone-resistant strain due to double gene mutations of DNA gyrase and topoisomerase IV.

Test [3] concerns Staphylococcus aureus ATCC29213 rpoB^H418Y. Kind of test: microbe, parasite or virus in culture. The note with it: Staphylococcus aureus ATCC29213 rpoB^H418Y, rifR; read-out: Antimicrobial activity (MIC). How it is done: as §1, §2
For test [4], the system named is Staphylococcus aureus EN1252a gyrA^S84L grlA^S80F. Kind of test: microbe, parasite or virus in culture. The following applies: Staphylococcus aureus EN1252a gyrA^S84L grlA^S80F, cipR; read-out: Antimicrobial activity (MIC). How it is done:
as §1, §2

The subject of test [5] is Staphylococcus epidermidis ATCC12228. Kind of test: MIC, microbroth dilution. The following applies: Staphylococcus epidermidis ATCC12228, rifS; read-out: Antimicrobial activity (MIC).
The test system of test [6] is Streptococcus pneumoniae ATCC6303. Kind of test: MIC, microbroth dilution. The following applies: Streptococcus pneumoniae ATCC6303, rifS; read-out: Antimicrobial activity (MIC).
Test [7] concerns Streptococcus pyogenes ATCC19615. Kind of test: MIC, microbroth dilution. The following applies: Streptococcus pyogenes ATCC19615, rifS; read-out: Antimicrobial activity (MIC).
Test [8] deals with Enterococcus faecalis ATCC29212. Kind of test: MIC, microbroth dilution. The following applies: Enterococcus faecalis ATCC29212, rifS; read-out: Antimicrobial activity (MIC).
For test [9], the system named is Haemophilus influenzae ATCC10211. Kind of test: MIC, microbroth dilution. The following applies: Haemophilus influenzae ATCC10211, rifS; read-out: Antimicrobial activity (MIC).
The test system of test [10] is Escherichia coli ATCC25922. Kind of test: MIC, microbroth dilution. The following applies: Escherichia coli ATCC25922, rifS; read-out: Antimicrobial activity (MIC).
Test [11] has as its system Mycobacterium smegmatis ATCC700084. Kind of test: MIC, microbroth dilution. The note with it: Mycolicibacterium smegmatis; Mycobacterium smegmatis ATCC700084, rifS; read-out: Antimicrobial activity (MIC).

Take `CO[C@H]1/C=C/O[C@@]2(C)Oc3c(C)c(O)c4c(c3/C2=N/OCC(=O)O)C(=O)C(N2CCOCC2)=C(NC(=O)/C(C)=C\C=C\[C@H](C)[C@H](O)[C@@H](C)[C@@H](O)[C@@H](C)[C@H](OC(C)=O)[C@@H]1C)C4=O` [Example 28, 11-Deoxy-3-(morpholin-4-yl)-11-(4-carboxymethoxyimino)-rifamycin S]: the MIC is 0.004 to 0.5 µg/mL (≈ 0.00468 to 0.586 µM) in test [1]; 0.25 to 32 µg/mL (≈ 0.293 to 37.5 µM) in test [2]; 0.125 to 16 µg/mL (≈ 0.146 to 18.7 µM) in test [3]; 0.004 to 0.5 µg/mL (≈ 0.00468 to 0.586 µM) in [4]; 0.0005 to 0.063 µg/mL (≈ 0.000586 to 0.0738 µM) in test [5]; 0.0002 to 0.125 µg/mL (≈ 0.000234 to 0.146 µM) in test [6]. Moreover, the MIC in test [7] fell in the range of 0.0005 to 0.063 µg/mL (≈ 0.000586 to 0.0738 µM); in test [8], 2 to 32 µg/mL (≈ 2.34 to 37.5 µM); in test [9], 0.03 to 2 µg/mL (≈ 0.0351 to 2.34 µM); in test [10], 0.125 to 8 µg/mL (≈ 0.146 to 9.37 µM); in test [11], 0.5 to 64 µg/mL (≈ 0.586 to 74.9 µM).

Regarding `CO[C@H]1/C=C/O[C@@]2(C)Oc3c(C)c(O)c4c(c3/C2=N/OCC(=O)N2CCN(c3cc5c(cc3F)c(=O)c(C(=O)O)cn5C3CC3)CC2)C(=O)C(N2CCOCC2)=C(NC(=O)/C(C)=C\C=C\[C@H](C)[C@H](O)[C@@H](C)[C@@H](O)[C@@H](C)[C@H](OC(C)=O)[C@@H]1C)C4=O` [Example 29, 11-Deoxy-3-(morpholin-4-yl)-11-{2-oxo-2-[4-(3-carboxy-1-cyclopropl-6-fluoro-4-oxo-1,4-dihydroquinolin-7-yl)piperazin-1-yl]ethoxyimino}rifamycin S], the MIC in test [1] is 0.004 to 0.5 µg/mL (≈ 0.00343 to 0.428 µM); in test [2], 0.25 to 32 µg/mL (≈ 0.214 to 27.4 µM); in test [3], 0.125 to 16 µg/mL (≈ 0.107 to 13.7 µM); in [4] it was 0.004 to 0.5 µg/mL (≈ 0.00343 to 0.428 µM); in test [5] it was 0.0005 to 0.063 µg/mL (≈ 0.000428 to 0.054 µM); in test [6], 0.0002 to 0.125 µg/mL (≈ 0.000171 to 0.107 µM). Also, the MIC lay within 0.0005 to 0.063 µg/mL (≈ 0.000428 to 0.054 µM) in test [7]; 2 to 32 µg/mL (≈ 1.71 to 27.4 µM) in test [8]; 0.03 to 2 µg/mL (≈ 0.0257 to 1.71 µM) in test [9]; 0.125 to 8 µg/mL (≈ 0.107 to 6.85 µM) in test [10]; 0.5 to 64 µg/mL (≈ 0.428 to 54.8 µM) in test [11].

Turning to `COc1c(N2CCN(C(=O)CO/N=C3/c4c5c(C)c(O)c6c4C(=O)C(N4CCOCC4)=C(NC(=O)/C(C)=C\C=C\[C@H](C)[C@H](O)[C@@H](C)[C@@H](O)[C@@H](C)[C@H](OC(C)=O)[C@H](C)[C@@H](OC)/C=C/O[C@@]3(C)O5)C6=O)C(C)C2)c(F)cc2c(=O)c(C(=O)O)cn(C3CC3)c12` (stereo partly shown) [Example 30, 11-Deoxy-3-(morpholin-4-yl)-11-{2-oxo-2-[4-(3-carboxy-1-cyclopropyl-6-fluoro-8-methoxy-4-oxo-1,4-dihydroquinolin-7-yl)-2-methylpiperazin-1-yl]ethoxyimino}rifamycin S], the MIC in test [1] was 0.004 to 0.5 µg/mL (≈ 0.0033 to 0.413 µM); in test [2], 0.25 to 32 µg/mL (≈ 0.206 to 26.4 µM); in [3] it was 0.125 to 16 µg/mL (≈ 0.103 to 13.2 µM); in [4], 0.004 to 0.5 µg/mL (≈ 0.0033 to 0.413 µM); in test [5], 0.0005 to 0.063 µg/mL (≈ 0.000413 to 0.052 µM); in [6], 0.0002 to 0.125 µg/mL (≈ 0.000165 to 0.103 µM). Moreover, the MIC in test [7] lay within 0.0005 to 0.063 µg/mL (≈ 0.000413 to 0.052 µM); in test [8], 2 to 32 µg/mL (≈ 1.65 to 26.4 µM); in test [9] it was 0.03 to 2 µg/mL (≈ 0.0248 to 1.65 µM); in test [10], 0.125 to 8 µg/mL (≈ 0.103 to 6.6 µM); in test [11], 0.5 to 64 µg/mL (≈ 0.413 to 52.8 µM).

For the molecule `CO[C@H]1/C=C/O[C@@]2(C)Oc3c(C)c(O)c4c(c3/C2=N/O)C(=O)C(N2CCN(c3cc5c(cc3F)c(=O)c(C(=O)O)cn5C3CC3)CC2)=C(NC(=O)/C(C)=C\C=C\[C@H](C)[C@H](O)[C@@H](C)[C@@H](O)[C@@H](C)[C@H](OC(C)=O)[C@@H]1C)C4=O` [Example 33, 11-Deoxy-3-[4-(3-carboxy-1-cyclopropyl-6-fluoro-4-oxo-1,4-dihydroquinolin-7-yl)piperazin-1-yl]-11-hydroxyiminorifamycin S], the MIC in [1] fell in the range of 0.004 to 0.5 µg/mL (≈ 0.00385 to 0.481 µM); in [2], 0.25 to 32 µg/mL (≈ 0.24 to 30.8 µM); in test [3], 0.125 to 16 µg/mL (≈ 0.12 to 15.4 µM); in test [4] it was 0.004 to 0.5 µg/mL (≈ 0.00385 to 0.481 µM); in test [5], 0.0005 to 0.063 µg/mL (≈ 0.000481 to 0.0606 µM); in [6], 0.0002 to 0.125 µg/mL (≈ 0.000192 to 0.12 µM). Further, the MIC is 0.0005 to 0.063 µg/mL (≈ 0.000481 to 0.0606 µM) in [7]; 2 to 32 µg/mL (≈ 1.92 to 30.8 µM) in test [8]; 0.03 to 2 µg/mL (≈ 0.0288 to 1.92 µM) in test [9]; 0.125 to 8 µg/mL (≈ 0.12 to 7.69 µM) in test [10]; 0.5 to 64 µg/mL (≈ 0.481 to 61.5 µM) in test [11].

For the molecule `CO[C@H]1/C=C/O[C@@]2(C)Oc3c(C)c(O)c4c(c3/C2=N/O)C(=O)C(N2CCOCC2)=C(NC(=O)/C(C)=C\C=C\[C@H](C)[C@H](O)[C@@H](C)[C@@H](O)[C@@H](C)[C@H](OC(C)=O)[C@@H]1C)C4=O` [Example 34, 11-Deoxy-3-(morpholin-4-yl)-11-hydroxyiminorifamycin S], the MIC in test [1] fell in the range of 0.004 to 0.5 µg/mL (≈ 0.00503 to 0.628 µM); in test [2] it was 0.25 to 32 µg/mL (≈ 0.314 to 40.2 µM); in test [3], 0.125 to 16 µg/mL (≈ 0.157 to 20.1 µM); in test [4], 0.004 to 0.5 µg/mL (≈ 0.00503 to 0.628 µM); in test [5], 0.0005 to 0.063 µg/mL (≈ 0.000628 to 0.0792 µM); in [6], 0.0002 to 0.125 µg/mL (≈ 0.000251 to 0.157 µM). For the same molecule, the MIC in test [7] lay within 0.0005 to 0.063 µg/mL (≈ 0.000628 to 0.0792 µM); in test [8], 2 to 32 µg/mL (≈ 2.51 to 40.2 µM); in [9] it was 0.03 to 2 µg/mL (≈ 0.0377 to 2.51 µM); in test [10], 0.125 to 8 µg/mL (≈ 0.157 to 10.1 µM); in [11], 0.5 to 64 µg/mL (≈ 0.628 to 80.4 µM).

Values taken from patent US7256187B2, “Rifamycin C-11 oxime derivatives effective against drug-resistant microbes” (Cumbre Pharmaceuticals Inc., priority 2004, dated 2007).
